Reference: article PMC3707847 (PLoS ONE, 2013)

Assays:
[1] = target: T1, recombinant IAV polymerase complex (PA/PB1/PB2) (Influenza A virus, UniProt F6KI70); assay type: biochemical, H3N2 IAV strain (A/chicken/Nanchang/3-120/01); conditions: for Primer extension products opposite C on template: template t14-1, 100 µM nucleotide plus 25 µM CTP and UTP; for Kapp, single NMP incorporation opposite cytidine (N:C): template t14-1, position +10; for Discrimination (Kapp,NTP/Kapp,GTP), opposite cytidine: template t14-1, relative to natural GTP; for Primer extension products opposite U on template: template t14-2, 100 µM nucleotide; for Discrimination (Kapp,NTP/Kapp,ATP), opposite uridine: template t14-2, relative to natural ATP; for Primer extension products with multiple incorporation sites (UCC at +10 to +12): template t14-3, 100 µM nucleotide
[2] = target: T1, recombinant IAV polymerase complex (PA/PB1/PB2); assay type: biochemical, H3N2 IAV strain (A/chicken/Nanchang/3-120/01); conditions: T-705 RTP at 100 µM; for Effect of increasing natural GTP to 300 µM on inhibition of polymerase activity: GTP 300 µM vs low, 3′dGTP data not shown
[3] = system: influenza virus RNP complex (RdRp activity); assay type: biochemical, Influenza virus (A/WSN/33 (H1N1))

Q: For `Nc1ncnc2c1ncn2[C@@H]1O[C@H](COP(=O)(O)OP(=O)(O)OP(=O)(O)O)C[C@H]1O` [3′dATP], which “Incorporation by IAVpol in single nucleotide incorporation assay” value ([1]; data not shown) is on record?
A: not significantly incorporated by IAVpol

Q: With `Nc1nc2c(ncn2[C@@H]2O[C@H](COP(=O)(O)OP(=O)(O)OP(=O)(O)O)C[C@H]2O)c(=O)[nH]1` [3′dGTP, 3′-deoxy GTP] as the compound, how does the “Primer extension products opposite C on template” value [1] read?
A: produced only a 10-mer chain termination product

Q: And the “Effect of increasing natural GTP to 300 µM on inhibition of polymerase activity” value [2]?
A: almost completely prevented the inhibition of polymerase activity

Q: What about the “Inhibition of radiolabeled viral RNA synthesis by RNP complex” value [3] of the same compound?
A: progressive inhibition of radio-labeled RNA synthesis

Q: For `Nc1ncnc2c1ncn2[C@@H]1O[C@H](COP(=O)(O)OP(=O)(O)OP(=O)(O)O)[C@@H](O)[C@H]1O` [ATP], which “Error rate of RNA synthesis by IAV polymerase, A:C mismatch” value ([1]; ATP opposite cytidine, calculated from Kapp) is on record?
A: 3.1×10^−6

Q: And the “Primer extension products opposite C on template” value [1]?
A: mis-incorporation was slightly increased

Q: What about the “Kapp, single NMP incorporation opposite cytidine (N:C)” value [1] of the same compound?
A: 2,560±720 µM

Q: And the “Discrimination (Kapp,NTP/Kapp,GTP), opposite cytidine” value [1]?
A: 330,000 fold

Q: And the “Primer extension products opposite U on template” value [1]?
A: converted to 14-mer full length product

Q: And the “Kapp for ATP opposite uridine as printed in text” value ([1]; template t14-2, position +10)?
A: 0.022 ± 0.003 µM⁻¹

Q: What about the “Kapp, single NMP incorporation opposite uridine (N:U)” value ([1]; template t14-2, position +10) of the same compound?
A: 0.022 ± 0.003 µM

Q: And the “Discrimination (Kapp,NTP/Kapp,ATP), opposite uridine” value [1]?
A: 1 fold

Q: And the “Primer extension products with multiple incorporation sites (UCC at +10 to +12)” value [1]?
A: most of the 9-mer was converted to 10-mer

Q: And the “Kapp for ATP incorporation, t14-3 template” value ([1]; template t14-3, 9-mer to +10 position)?
A: 0.038 µM

Q: Which “Error rate of RNA synthesis by IAV polymerase, G:U mismatch” value ([1]; GTP opposite uridine, calculated from Kapp) does the source give for `Nc1nc2c(ncn2[C@@H]2O[C@H](COP(=O)(O)OP(=O)(O)OP(=O)(O)O)[C@@H](O)[C@H]2O)c(=O)[nH]1` [GTP] here?
A: 2.4×10^−3

Q: What about the “Primer extension products opposite C on template” value [1] of the same compound?
A: converted to the 14-mer full length extension product

Q: And the “Kapp, single NMP incorporation opposite cytidine (N:C)” value [1]?
A: 0.0078 ± 0.003 µM

Q: What about the “Discrimination (Kapp,NTP/Kapp,GTP), opposite cytidine” value [1] of the same compound?
A: 1 fold

Q: And the “Primer extension products opposite U on template” value [1]?
A: robust 14-mer RNA product

Q: And the “Kapp, single NMP incorporation opposite uridine (N:U)” value ([1]; template t14-2, position +10)?
A: 9.2 ± 0.54 µM

Q: What about the “Discrimination (Kapp,NTP/Kapp,ATP), opposite uridine” value [1] of the same compound?
A: 420 fold

Q: Which results are given for `NC(=O)c1nc(F)cn([C@@H]2O[C@H](COP(=O)(O)OP(=O)(O)OP(=O)(O)O)[C@@H](O)[C@H]2O)c1=O` [T-705 RTP, T-705 ribofuranosyl 5′-triphosphate]?
A: Primer extension products opposite C on template [1]: conversion of the 9-mer to 14-mer, with an additional 10-mer product; Primer extension products opposite U on template [1]: conversion of the 9-mer to 10- and 14-mer products; Primer extension products with multiple incorporation sites (UCC at +10 to +12) [1]: complete inhibition of further nucleotide incorporation; Effect of increasing natural ATP to 300 µM on inhibition ([2]; ATP 300 µM vs 3 µM): same loss of inhibition effect; Effect of CTP and UTP at varying concentrations on inhibition potency ([2]; CTP or UTP 3 or 300 µM): did not change the inhibition potency; Effect of increasing natural GTP to 300 µM on inhibition of polymerase activity [2]: almost completely prevented the inhibition of polymerase activity; Inhibition of radiolabeled viral RNA synthesis by RNP complex [3]: inhibited the RdRp activity of influenza virus vRNPs; Potency relative to 3′dGTP against RNP complex [3]: significantly more potent than 3′dGTP
